Results on 22 compounds are retold here after patent US9029370B2, “Substituted benzamide derivatives” (Hoffmann-La Roche Inc., priority 2011, dated 2015).

Where a name gives a salt, the structure may show the parent alone.

The target in assay [1] is mouse TAAR1 (Mus musculus (Mouse), UniProt Q923Y8). Briefly: Radioligand binding assay on mouse TAAR1. Conditions: for Ki: mouse TAAR1, HEK-293 membranes, first value of the pair (before the slash), read-out: Ki (μM) mouse/rat. Here is the method: (§1) For the construction of expression plasmids the coding sequences of human, rat and mouse TAAR 1 were amplified from genomic DNA essentially as described by Lindemann et al.. The Expand High Fidelity PCR System (Roche Diagnostics) was used with 1.5 mM Mg^2+ and purified PCR products were cloned into pCR2.1-TOPO cloning vector (Invitrogen) following the instructions of the manufacturer. PCR products were subcloned into the pIRESneo2 vector (BD Clontech, Palo Alto, Calif.), and expression vectors were sequence verified before introduction in cell lines.
(§2) HEK293 cells (ATCC # CRL-1573) were cultured essentially as described by Lindemann et al. (2005). For the generation of stably transfected cell lines HEK293 cells were transfected with the pIRESneo2 expression plasmids containing the TAAR coding sequences (described above) with Lipofectamine 2000 (Invitrogen) according to the instructions of the manufacturer, and 24 hrs post transfection the culture medium was supplemented with 1 mg/ml G418 (Sigma, Buchs, Switzerland). After a culture period of about 10 d clones were isolated, expanded and tested for responsiveness to trace amines (all compounds purchased from Sigma) with the cAMP Biotrak Enzyme immunoassay (EIA) System (Amersham) following the non-acetylation EIA procedure provided by the manufacturer.
Radioligand Binding Assay on Mouse TAAR1
(§3) Membrane Preparation and Radioligand Binding.
(§4) HEK-293 cells stably expressing mouse TAAR1 were maintained at 37° C. and 5% CO2 in DMEM high glucose medium, containing fetal calf serum (10%, heat inactivated for 30 min at 56° C.), penicillin/streptomycin (1%), and 375 μg/ml geneticin (Gibco). Cells were released from culture flasks using trypsin/EDTA, harvested, washed twice with ice-cold PBS (without Ca^2+ and Mg^2+), pelleted at 1′000 rpm for 5 min at 4° C., frozen and stored at −80° C. […] The homogenate was centrifuged at 48′000×g for 30 min at 4° C. Subsequently, the supernatant was removed and discarded, and the pellet resuspended in 20 ml HEPES-NaOH (20 mM, pH 7.4) containing 0.1 mM EDTA using the Polytron (20 s at 14′000 rpm). This procedure was repeated and the final pellet resuspended in HEPES-NaOH containing 0.1 mM EDTA and homogenized using the Polytron. Typically, aliquots of 2 ml membrane portions were stored at −80° C. With each new membrane batch the dissociation constant (Kd) was determined via a saturation curve. […] Nonspecific binding was defined as the amount of ^3[H]-(S)-4-[(ethyl-phenyl-amino)-methyl]-4,5-dihydro-oxazol-2-ylamine bound in the presence of 10 μM unlabeled ligand. All compounds were tested at a broad range of concentrations (10 pM to 10 μM) in duplicates. […] The 96 deep well plates were incubated for 1 hr at 4° C. Incubations were terminated by rapid filtration through Unifilter-96 plates (Packard Instrument Company) and glass filters GF/C (Perkin Elmer) presoaked for 1 hr in polyethylenimine (0.3%) and washed 3 times with 1 ml of cold binding buffer. After addition of 45 μl of Microscint 40 (PerkinElmer) the Unifilter-96 plate was sealed and after 1 hr the ratioactivity counted using a TopCount Microplate Scintillation Counter (Packard Instrument Company).

The target of assay [2] is rat TAAR1 (Rattus norvegicus (Rat), UniProt Q923Y9). Briefly: Radioligand binding assay on rat TAAR1. The settings on record: for Ki: rat TAAR1, HEK-293 membranes, second value of the pair (line below), read-out: Ki (μM) mouse/rat. Here is the method: as §1, §2
Radioligand Binding Assay on Rat TAAR1
as §3
as §4, with “rat” for “mouse”

mouse TAAR1, sequence (Q923Y8 whole entry): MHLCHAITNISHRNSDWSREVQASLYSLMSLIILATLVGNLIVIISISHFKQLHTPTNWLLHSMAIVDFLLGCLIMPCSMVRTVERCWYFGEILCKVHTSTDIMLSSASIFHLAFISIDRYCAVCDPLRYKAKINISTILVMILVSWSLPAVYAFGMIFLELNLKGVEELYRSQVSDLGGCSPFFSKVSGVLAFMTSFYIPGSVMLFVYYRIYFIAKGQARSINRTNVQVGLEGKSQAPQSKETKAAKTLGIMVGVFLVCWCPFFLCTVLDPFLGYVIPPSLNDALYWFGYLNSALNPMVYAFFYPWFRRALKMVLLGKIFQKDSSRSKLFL
rat TAAR1, sequence (Q923Y9 whole entry): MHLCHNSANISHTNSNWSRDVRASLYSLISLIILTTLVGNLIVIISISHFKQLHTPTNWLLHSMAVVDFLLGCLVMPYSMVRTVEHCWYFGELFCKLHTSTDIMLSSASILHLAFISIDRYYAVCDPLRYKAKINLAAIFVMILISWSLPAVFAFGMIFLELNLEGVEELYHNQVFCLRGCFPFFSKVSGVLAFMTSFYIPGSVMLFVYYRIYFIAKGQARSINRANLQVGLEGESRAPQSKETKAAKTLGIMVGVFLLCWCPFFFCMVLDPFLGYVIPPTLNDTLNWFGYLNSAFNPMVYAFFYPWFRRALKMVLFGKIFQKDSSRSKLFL

In the case of `O=C(Nc1ccc([C@H]2CNCCO2)c(F)c1)c1ccnc(C(F)(F)F)c1` [Example 87, (S)—N-(3-Fluoro-4-(morpholin-2-yl)phenyl)-2-(trifluoromethyl)isonicotinamide hydrochloride], the figures for the Ki in assay [1] and in assay [2] were 0.0105 µM and 0.0202 µM, respectively.
In the same order, the values of `O=C(Nc1ccc(C(F)(F)F)nc1)Nc1ccc([C@@H]2CNCCO2)cc1Cl` [Example 49, (R)-1-(2-Chloro-4-(morpholin-2-yl)phenyl)-3-(6-(trifluoromethyl)pyridin-3-yl)urea] are 0.0021 µM and 0.0015 µM.
In the same order, the values of `O=C(Nc1ccc([C@H]2CNCCO2)cc1F)c1ccn(-c2ccc(F)cc2)n1` [Example 13, 1-(4-Fluoro-phenyl)-1H-pyrazole-3-carboxylic acid ((S)-2-fluoro-4-morpholin-2-yl-phenyl)-amide] are 0.0011 µM and 0.0024 µM.
Taken in the same sequence, the figures for `N#Cc1ccc(OC(F)F)c(NC(=O)Nc2ccc([C@H]3CNCCO3)cc2F)c1` [Example 71, 1-(5-Cyano-2-difluoromethoxy-phenyl)-3-((S)-2-fluoro-4-morpholin-2-yl-phenyl)-urea hydrochloride] were 0.0018 µM and 0.0012 µM.
Regarding `Cc1nc(C(=O)Nc2ccc([C@H]3CNCCO3)c(F)c2)ccc1C#N` [Example 136, (S)-5-Cyano-N-(3-fluoro-4-(morpholin-2-yl)phenyl)-6-methylpicolinamide hydrochloride], the Ki in assay [1] was 0.0075 µM; in assay [2] it was 0.0585 µM.
In the same order, the values of `Cn1nc(-c2ccccc2)cc1C(=O)Nc1ccc([C@@H]2CNCCO2)cc1F` [Example 23, 2-Methyl-5-phenyl-2H-pyrazole-3-carboxylic acid ((R)-2-fluoro-4-morpholin-2-yl-phenyl)-amide] are 0.0254 µM and 0.0033 µM.
As to `Cc1cc(C(=O)Nc2ccc([C@H]3CNCCO3)c(Cl)c2)cc(C(N)=O)n1` [Example 118, (S)—N4-(3-Chloro-4-(morpholin-2-yl)phenyl)-6-methylpyridine-2,4-dicarboxamide hydrochloride], the Ki was found to be 0.0416 µM in assay [1] and 0.264 µM in assay [2].
For `O=C(Nc1ccc([C@H]2CNCCO2)cc1F)c1n[nH]c2cc(F)ccc12` [Example 2, 6-Fluoro-1H-indazole-3-carboxylic acid ((S)-2-fluoro-4-morpholin-2-yl-phenyl)-amide], the values for the Ki in assay [1] and in assay [2] were 0.0012 µM and 0.0009 µM, respectively.
As for `O=C(Nc1ccc([C@@H]2CNCCO2)cc1F)c1ccn(-c2ccc(F)cc2)n1` [Example 12, 1-(4-Fluoro-phenyl)-1H-pyrazole-3-carboxylic acid ((R)-2-fluoro-4-morpholin-2-yl-phenyl)-amide], the results for the Ki in assay [1] and in assay [2] were 0.0026 µM and 0.0006 µM, respectively.
As for `O=C(Nc1ccc(Cl)nc1)Nc1ccc(C2CCNC2)cc1Cl` (racemic) [Example 38, (RS)-1-(6-Chloro-pyridin-3-yl)-3-(2-chloro-4-pyrrolidin-3-yl-phenyl)-urea], the Ki in assay [1] is 0.0029 µM; in assay [2] it was 0.0191 µM.
Consider `O=C(Nc1ccc([C@H]2CNCCO2)cc1F)c1cnn(-c2ccc3c(c2)OC(F)(F)O3)c1` [Example 82, (S)-1-(2,2-Difluorobenzo[d][1,3]dioxol-5-yl)-N-(2-fluoro-4-(morpholin-2-yl)phenyl)-1H-pyrazole-4-carboxamide], for which the Ki in assay [1] was 0.0013 µM; in assay [2], 0.0016 µM.
Take `CCc1cc(C(=O)Nc2ccc([C@H]3CNCCO3)c(F)c2)cc(C(N)=O)n1` [Example 117, (S)-6-Ethyl-N4-(3-fluoro-4-(morpholin-2-yl)phenyl)pyridine-2,4-dicarboxamide hydrochloride]: the Ki in assay [1] stood at 0.0284 µM; in assay [2], 0.045 µM.
With `CCN(C[C@H]1COC(N)=N1)c1ccccc1` [^3[H]-(S)-4-[(ethyl-phenyl-amino)-methyl]-4,5-dihydro-oxazol-2-ylamine, reference compound], the Kd (commonly the equilibrium constant for the complex coming apart) in assay [1] (mouse TAAR1 membranes, saturation curve, usual value, read-out: dissociation constant (Kd) of the radioligand) was approximately 0.7 nM; in assay [2] (rat TAAR1 membranes, saturation curve, usual value, read-out: dissociation constant (Kd) of the radioligand) it was approximately 2.3 nM.
As to `CCOc1cc(C(=O)Nc2ccc([C@H]3CNCCO3)c(F)c2)ccn1` [Example 88, (S)-2-Ethoxy-N-(3-fluoro-4-(morpholin-2-yl)phenyl)isonicotinamide hydrochloride], the Ki is 0.0034 µM in assay [1] and 0.0458 µM in assay [2].
Taken in the same sequence, the figures for `Cc1cc(C(=O)Nc2ccc([C@H]3CNCCO3)c(Cl)c2)cc(C#N)n1` [Example 112, (S)—N-(3-Chloro-4-(morpholin-2-yl)phenyl)-2-cyano-6-methylisonicotinamide hydrochloride] were 0.0259 µM and 0.0248 µM.
In the case of `COc1cc(C(=O)Nc2ccc([C@H]3CNCCO3)cc2Cl)cc(C#N)n1` [Example 124, (S)—N-(2-Chloro-4-(morpholin-2-yl)phenyl)-2-cyano-6-methoxyisonicotinamide hydrochloride], the values for the Ki in assay [1] and in assay [2] were 0.0235 µM and 0.0231 µM, respectively.
Taken in the same sequence, the figures for `NC(=O)c1cc(C(=O)Nc2ccc([C@H]3CNCCO3)c(F)c2)cc(Cl)n1` [Example 116, (S)-6-Chloro-N4-(3-fluoro-4-(morpholin-2-yl)phenyl)pyridine-2,4-dicarboxamide hydrochloride] were 0.0512 µM and 0.162 µM.
Regarding `COc1ccc(C#N)cc1NC(=O)Nc1ccc([C@H]2CNCCO2)cc1Cl` [Example 46, (S)-1-(2-Chloro-4-(morpholin-2-yl)phenyl)-3-(5-cyano-2-methoxyphenyl)urea], the Ki in assay [1] was determined as 0.0016 µM; in assay [2] it was 0.0064 µM.
In the same order, the values of `COc1cc(C(=O)Nc2ccc([C@H]3CNCCO3)cc2F)cc(C#N)n1` [Example 121, (S)-2-Cyano-N-(2-fluoro-4-(morpholin-2-yl)phenyl)-6-methoxyisonicotinamide hydrochloride] are 0.0145 µM and 0.0158 µM.
As to `N#Cc1ccc(OC(F)F)c(NC(=O)Nc2ccc([C@H]3CNCCO3)cc2Br)c1` [Example 61, 1-((S)-2-Bromo-4-morpholin-2-yl-phenyl)-3-(5-cyano-2-difluoromethoxy-phenyl)-urea], the Ki in assay [1] is 0.0018 µM; in assay [2] it was 0.0025 µM.
On to `O=C(Nc1cnc(C(F)(F)F)nc1)Nc1ccc([C@H]2CNCCO2)cc1Cl` [Example 51], for which the Ki in assay [1] amounted to 0.0067 µM; in assay [2] it was 0.0126 µM.
For the compound `O=C(Nc1ccc([C@H]2CNCCO2)cc1Cl)c1ccn(-c2ccc(F)cc2)n1` [Example 29, (S)—N-(2-Chloro-4-(morpholin-2-yl)phenyl)-1-(4-fluorophenyl)-1H-pyrazole-3-carboxamide], the Ki is 0.0017 µM in assay [1] and 0.0036 µM in assay [2].
